In patent publication US20100009853A1, “PARASITIC PLANT CONTROL AGENT AND USE THEREOF” (Nihon Nohyaku Co., Ltd, priority 2006, published 2010):
Where “and” joins values, the source holds several entries; their conditions need not be identical. Equal values may be shown once. Each block holds one compound with its values, some of them ahead of it.

How the values were obtained:
Format in all cases: in vivo
Orobanche minor [1] = assay: Test Example 1: seed soaking treatment, parasitism of Orobanche minor on red clover; conditions: for Average parasitism frequency per root / S4 bud formation per root: seed soaking 24 h; for Average parasitism frequency per root: red clover host, untreated plot 2.55; for S4 bud formation per root: untreated plot 0.52
Method: (§1) Red clover seeds were soaked for 24 hours in agent liquid which had been prepared into a predetermined concentration. The red clover seeds were sowed in a pot packed with soil (1/10000 ares) and Orobanche minor seeds were sowed around the red clover seeds, followed by cultivation in a greenhouse. Growth of the red clover and the parasitism frequency and growth of Orobanche minor were observed by visual observation. The growth of Orobanche minor was evaluated based on the following four steps. [table]

Orobanche minor [2] = assay: Test Example 2: soil irrigation treatment, parasitism of Orobanche minor on red clover; conditions: for Average parasitism frequency per root: soil irrigation 20 ml/pot at 10, 20 and 30 days after sowing, untreated plot 2.55; for S4 bud formation per root: untreated plot 0.52
Method: (§2) The red clover seeds were sowed in a pot packed with soil (1/10000 ares) and Orobanche minor seeds were sowed around the red clover seeds, followed by cultivation in a greenhouse. After 10, 20 and 30 days of the sowing, an agent liquid prepared into a predetermined concentration was irrigation-treated at a ratio of 20 ml/pot.

Orobanche minor [3] = assay: Test Example 3: foliage application treatment, parasitism of Orobanche minor on red clover; conditions: for Average parasitism frequency per root: foliage application at 10, 20 and 30 days after sowing, untreated plot 2.55; for S4 bud formation per root: untreated plot 0.52
Source text: (§3) The red clover seeds were sowed in a pot packed with soil (1/10000 ares) and Orobanche minor seeds were sowed around the red clover seeds, followed by cultivation in a greenhouse. After 10, 20 and 30 days of the sowing, sufficient amount of agent liquid diluted to a predetermined concentration with water was applied to the foliage using an atomizer, from single- to double-leaf stage of the red clover.

red clover [4] = assay: Test Example 3: effect of foliage application on the host red clover
Source text: as §3

crop plants = assay: Phytotoxicity for crop plants (general statement); conditions: general statement in the description
red clover [5] = assay: Test Example 5: phytotoxicity of soil irrigation treatment on red clover; conditions: symptom growth inhibition
Method: as §2, with “sowing,” for “sowing, an”

parasitic plant = assay: Parasitic plant controlling activity (general statement); conditions: general statement in the description
Orobanche minor [6] = assay: Test Example 6: foliage application treatment, parasitism of Orobanche minor on red clover; conditions: for Average parasitism frequency per root: foliage application at 10, 20 and 30 days after sowing, untreated plot 2.08; for S4 bud formation per root / parasitism frequency decreasing tendency / S4 bud formation / parasitism frequency: foliage application; for S4 bud formation per root: untreated plot 0.45; for parasitism frequency decreasing tendency: 200 ppm or less; for S4 bud formation: 2000 and 200 ppm
Source text: as §3

Orobanche minor [7] = assay: Test Example 5: soil irrigation treatment, parasitism of Orobanche minor on red clover; conditions: for Average parasitism frequency per root: soil irrigation 20 ml/pot at 10, 20 and 30 days after sowing, untreated plot 2.08; for S4 bud formation per root / parasitism frequency / S4 bud formation: soil irrigation; for S4 bud formation per root: untreated plot 0.45; for parasitism frequency: 2000 and 200 ppm; for S4 bud formation: all treatment plots
Method: as §2, with “sowing,” for “sowing, an”

Orobanche minor [8] = assay: Test Example 4: seed soaking treatment, parasitism of Orobanche minor on red clover; conditions: for S4 bud formation per root / Average parasitism frequency per root: seed soaking 24 h; for S4 bud formation per root: untreated plot 0.45; for Average parasitism frequency per root: untreated plot 2.08; for S4 bud formation / total parasitism frequency of Orobanche minor: seed soaking, all treatment plots (200 and 20 ppm)
Method: as §1, with “observation.” for “observation. The growth of Orobanche minor was evaluated based on the following four steps. [table]”

Compound: C=CCOC1=NS(=O)(=O)c2ccccc21 [PBZ, probenazole]
Average parasitism frequency per root (Orobanche minor [1]; 20 ppm): 1.50 per root
S4 bud formation per root (Orobanche minor [1]; 20 ppm): 0.28 per root
Average parasitism frequency per root (Orobanche minor [1]; 200 ppm): 1.59 per root
S4 bud formation per root (Orobanche minor [1]; 200 ppm): 0.29 per root
Average parasitism frequency per root (Orobanche minor [2]; 2 ppm): 2.47 per root
Average parasitism frequency per root (Orobanche minor [2]; 20 ppm): 3.17 per root
Average parasitism frequency per root (Orobanche minor [2]; 200 ppm): 1.52 per root
S4 bud formation per root (Orobanche minor [2]; soil irrigation, 2 ppm): 0.13 per root
S4 bud formation per root (Orobanche minor [2]; soil irrigation, 20 ppm): 0.08 per root
S4 bud formation per root (Orobanche minor [2]; soil irrigation, 200 ppm): 0.08 per root
Average parasitism frequency per root (Orobanche minor [3]; 20 ppm): 2.24 per root
Average parasitism frequency per root (Orobanche minor [3]; 200 ppm): 1.75 per root
S4 bud formation per root (Orobanche minor [3]; foliage application, 20 ppm): 0.16 per root
S4 bud formation per root (Orobanche minor [3]; foliage application, 200 ppm): 0.18 per root

growth of the host (red clover [4]; 200 ppm treatment plot): inhibited
Compound: O=C(O)c1ccnc(Cl)c1 [INA, 2-chloroisonicotinic acid]
reduction of the S4 (bud formation) (Orobanche minor [1]; seed soaking): large
Average parasitism frequency per root (Orobanche minor [1]; 20 ppm): 2.28 per root
S4 bud formation per root (Orobanche minor [1]; 20 ppm): 0.22 per root
Average parasitism frequency per root (Orobanche minor [1]; 200 ppm): 1.03 per root
S4 bud formation per root (Orobanche minor [1]; 200 ppm): 0.02 per root
number of total parasitized cases of Orobanche minor (Orobanche minor [1]; seed soaking, 200 ppm): reducing tendency
Average parasitism frequency per root (Orobanche minor [2]; 2 ppm): 1.49 per root
Average parasitism frequency per root (Orobanche minor [2]; 20 ppm): 1.03 per root
S4 bud formation per root (Orobanche minor [2]; soil irrigation, 2 ppm): 0.07 per root
S4 bud formation per root (Orobanche minor [2]; soil irrigation, 20 ppm): 0.08 per root
parasitism frequency (Orobanche minor [2]; soil irrigation, 200 ppm): slightly lowered
Average parasitism frequency per root (Orobanche minor [3]; 2 ppm): 0.99 per root
Average parasitism frequency per root (Orobanche minor [3]; 20 ppm): 0.94 per root
S4 bud formation per root (Orobanche minor [3]; foliage application, 2 ppm): 0.05 per root
S4 bud formation per root (Orobanche minor [3]; foliage application, 20 ppm): 0.03 per root
parasitism frequency (Orobanche minor [3]; foliage application, concentration not given): lowered

Compound: Cc1ccc(NC(=O)c2snnc2C)cc1Cl [TDN, tiadinil]
phytotoxicity (crop plants): low
phytotoxicity (red clover [5]; 200 ppm): weak
phytotoxicity (red clover [5]; 2000 ppm): strong
parasitic plant controlling activity (parasitic plant): high
Average parasitism frequency per root (Orobanche minor [1]; 20 ppm): 1.07 per root
S4 bud formation per root (Orobanche minor [1]; 20 ppm): 0.08 per root
Average parasitism frequency per root (Orobanche minor [1]; 200 ppm): 2.57 per root
S4 bud formation per root (Orobanche minor [1]; 200 ppm): 0.21 per root
Average parasitism frequency per root (Orobanche minor [1]; 2000 ppm): 2.01 per root
S4 bud formation per root (Orobanche minor [1]; 2000 ppm): 0.15 per root
number of total parasitized cases of Orobanche minor (Orobanche minor [1]; seed soaking, 20 ppm): reducing tendency
Average parasitism frequency per root (Orobanche minor [6]; 20 ppm): 2.25 per root
Average parasitism frequency per root (Orobanche minor [6]; 200 ppm): 1.92 per root
Average parasitism frequency per root (Orobanche minor [6]; 2000 ppm): 0.34 per root
S4 bud formation per root (Orobanche minor [6]; 20 ppm): 0.49 per root
parasitism frequency decreasing tendency (Orobanche minor [6]): unclear
S4 bud formation per root (Orobanche minor [6]; 200 ppm): 0.35 per root
S4 bud formation (Orobanche minor [6]): decreasing tendency
parasitism frequency (Orobanche minor [6]; 2000 ppm): decreasing tendency
S4 bud formation per root (Orobanche minor [6]; 2000 ppm): 0.15 per root
effective concentration (Orobanche minor [2]; soil irrigation): ≥ 200 ppm
parasitism, dose relation (Orobanche minor [2]; soil irrigation): dose-related lowering
Average parasitism frequency per root (Orobanche minor [2]; 2 ppm): 2.36 per root
Average parasitism frequency per root (Orobanche minor [2]; 20 ppm): 1.71 per root
Average parasitism frequency per root (Orobanche minor [2]; 200 ppm): 0.53 per root
Average parasitism frequency per root (Orobanche minor [2]; 2000 ppm): 0.03 per root
S4 bud formation per root (Orobanche minor [2]; soil irrigation, 2 ppm): 0.17 per root
S4 bud formation per root (Orobanche minor [2]; soil irrigation, 20 ppm): 0.10 per root
S4 bud formation per root (Orobanche minor [2]; soil irrigation, 200 ppm): 0.16 per root
Parasitism (Orobanche minor [2]; soil irrigation, 2000 ppm): hardly found
S4 bud formation per root (Orobanche minor [2]; soil irrigation, 2000 ppm): 0.00 per root
Average parasitism frequency per root (Orobanche minor [7]; 20 ppm): 2.22 per root
Average parasitism frequency per root (Orobanche minor [7]; 200 ppm): 1.55 per root
Average parasitism frequency per root (Orobanche minor [7]; 2000 ppm): 0.22 per root
S4 bud formation per root (Orobanche minor [7]; 20 ppm): 0.13 per root
S4 bud formation per root (Orobanche minor [7]; 200 ppm): 0.11 per root
parasitism frequency (Orobanche minor [7]): reducing tendency
S4 bud formation per root (Orobanche minor [7]; 2000 ppm): 0.07 per root
S4 bud formation (Orobanche minor [7]): reduced
parasitism, dose relation (Orobanche minor [3]; foliage application): dose-related lowering
Average parasitism frequency per root (Orobanche minor [3]; 20 ppm): 1.49 per root
Average parasitism frequency per root (Orobanche minor [3]; 200 ppm): 1.02 per root
Average parasitism frequency per root (Orobanche minor [3]; 2000 ppm): 0.24 per root
S4 bud formation per root (Orobanche minor [3]; foliage application, 20 ppm): 0.15 per root
S4 bud formation per root (Orobanche minor [3]; foliage application, 200 ppm): 0.06 per root
effect on parasitism (Orobanche minor [3]; foliage application, 2000 ppm): high effect
S4 bud formation per root (Orobanche minor [3]; foliage application, 2000 ppm): 0.03 per root
S4 bud formation per root (Orobanche minor [8]; 20 ppm): 0.10 per root
Average parasitism frequency per root (Orobanche minor [8]; 20 ppm): 1.12 per root
S4 bud formation per root (Orobanche minor [8]; 200 ppm): 0.12 per root
Average parasitism frequency per root (Orobanche minor [8]; 200 ppm): 0.05 per root
S4 bud formation (Orobanche minor [8]): decreasing tendency
total parasitism frequency of Orobanche minor (Orobanche minor [8]): decreasing tendency

Compound: N#Cc1ccccc1NC(=O)c1snc(Cl)c1Cl [CICA, N-(2-cyanophenyl)-3,4-dichloroisothiazole-5-carboxamide]
phytotoxicity (red clover [5]; 2000 ppm): weak
Average parasitism frequency per root (Orobanche minor [6]; 20 ppm): 3.01 per root
Average parasitism frequency per root (Orobanche minor [6]; 200 ppm): 2.05 per root
Average parasitism frequency per root (Orobanche minor [6]; 2000 ppm): 0.44 per root
S4 bud formation per root (Orobanche minor [6]; 20 ppm): 0.60 per root
parasitism frequency decreasing tendency (Orobanche minor [6]): unclear
S4 bud formation per root (Orobanche minor [6]; 200 ppm): 0.25 per root
S4 bud formation (Orobanche minor [6]): decreasing tendency
parasitism frequency (Orobanche minor [6]; 2000 ppm): decreasing tendency
S4 bud formation per root (Orobanche minor [6]; 2000 ppm): 0.03 per root
Average parasitism frequency per root (Orobanche minor [7]; 20 ppm): 1.99 per root
Average parasitism frequency per root (Orobanche minor [7]; 200 ppm): 1.39 per root
Average parasitism frequency per root (Orobanche minor [7]; 2000 ppm): 0.15 per root
S4 bud formation per root (Orobanche minor [7]; 20 ppm): 0.10 per root
S4 bud formation per root (Orobanche minor [7]; 200 ppm): 0.09 per root
parasitism frequency (Orobanche minor [7]): reducing tendency
S4 bud formation per root (Orobanche minor [7]; 2000 ppm): 0.04 per root
S4 bud formation (Orobanche minor [7]): reduced
S4 bud formation per root (Orobanche minor [8]; 20 ppm): 0.11 per root
Average parasitism frequency per root (Orobanche minor [8]; 20 ppm): 1.36 per root
S4 bud formation per root (Orobanche minor [8]; 200 ppm): 0.09 per root
Average parasitism frequency per root (Orobanche minor [8]; 200 ppm): 1.15 per root
S4 bud formation (Orobanche minor [8]): decreasing tendency
total parasitism frequency of Orobanche minor (Orobanche minor [8]): decreasing tendency

red clover withered (fraction of plants per pot) (red clover [4]; first treatment with 200 ppm, two pots): 4/6 and 1/5
Compound: O=C(O)c1ccccc1O [SA, salicylic acid]
parasitic plant controlling activity (parasitic plant): not so high
Average parasitism frequency per root (Orobanche minor [1]; 20 ppm): 2.09 per root
S4 bud formation per root (Orobanche minor [1]; 20 ppm): 0.38 per root
Average parasitism frequency per root (Orobanche minor [1]; 200 ppm): 2.17 per root
S4 bud formation per root (Orobanche minor [1]; 200 ppm): 0.44 per root
Average parasitism frequency per root (Orobanche minor [2]; 2 ppm): 1.75 per root
Average parasitism frequency per root (Orobanche minor [2]; 20 ppm): 2.47 per root
S4 bud formation per root (Orobanche minor [2]; soil irrigation, 2 ppm): 0.06 per root
S4 bud formation per root (Orobanche minor [2]; soil irrigation, 20 ppm): 0.03 per root
Average parasitism frequency per root (Orobanche minor [3]; 2 ppm): 1.91 per root
S4 bud formation per root (Orobanche minor [3]; foliage application, 2 ppm): 0.17 per root
S4 bud formation per root (Orobanche minor [3]; foliage application, 20 ppm): 0.38 per root
parasitism frequency (Orobanche minor [3]; foliage application, 200 ppm): large
